Results taken from US20150024008A1, “Methods and Compositions Involving Induced Senescent Cells for Cancer Treatment” (THE UNIVERSITY OF CHICAGO, priority 2011, published 2015).

What was measured:
[1] = tested on: MCF7 Tet-On GFP-IBD human breast cancer cell line; test: GFP-53BP1 IRIF persistence, senescence and growth in MCF7 Tet-On GFP-IBD cells; format: cell-based; settings: for persistence of GFP-53BP1 foci (IRIF) / accelerated senescence: combined with irradiation; for Senescence inducing condition 2 (compound concentration combined with IR) / Senescence inducing condition 1 (compound concentration combined with IR): MCF7 cell line
Procedure: To examine the effect of glucose metabolism on IRIF persistence in living cells, we exploited our previously described IRIF reporter consisting of GFP fused to the 53BP1 IRIF binding domain, expressed under tetracycline-inducible control. MCF7^Tet-On GFP-IBD cells were seeded at 3×10^5 per Fluorodish (World Precision Instruments, Inc.) in high-glucose (4.5 g/L) DMEM (Invitrogen) media supplemented with 10% Tet system-approved fetal bovine serum (Clontech) and 1 μg/mL doxycycline (Sigma). Next day media was exchanged for either high-glucose (4.5 g/L) or low-glucose (1 g/L) DMEM with 10% FBS and 1 μg/mL doxycycline. […] Cells were fixed at 3 h and 24 h for IRIF imaging and at day 5 for SA-βGal staining. Images were captured on Zeiss Axiovert 200M and a Hammatsu Orca ER FireWire digital monochrome (IRIF) or Zeiss Axiocam color digital camera (SA-βGal staining) controlled by OpenLab software.
To investigate what step of glycolysis is critical for improvement of DNA repair we used set of well established glycolysis inhibitors including glucose transporter Glut1 inhibitor, HXKi, GAPHi, PKi, LDHi. […] Given that elevated glycolysis predispose tumor cells for therapeutic resistance similar experiment has been performed on IR resistant PANC02 mouse pancreatic and U87 human glioma cell lines.

[2] = tested on: Nu61 head and neck squamous carcinoma xenografts; test: SA-βGal in Nu61 tumor xenografts; format: in vivo, mouse
Procedure: Head and neck squamous carcinomas cell line Nu61^Tet-On GFP-IBD with IRIF live imaging reporter have been developed. Female athymic nude mice underwent s.c. injection of 1×10^7 Nu61 Tet-OnGFP-IBD cells in 100 μL of PBS. Nine days later, mice received 25 mg/kg veliparib (ChemieTek) by oral gavage 48 hours before and 72 hours after a single dose of 6 Gy. […] Tumors were excised and frozen in liquid nitrogen for subsequent analysis. Frozen sections were analyzed for SA-βGal activity. The senescence-associated β-galactosidase (SA-βGal) assay was conducted as described before. Images were captured on a Zeiss Axiovert 200M and Zeiss Axiocam color digital camera controlled by OpenLab software with a ×20 objective.

[3] = tested on: PANC02 mouse pancreatic cell line; test: GFP-53BP1 IRIF persistence in PANC02 Tet-On GFP-IBD cells; format: cell-based; settings: 24 hours after 6 Gy
Procedure: (§1) PANC02^Tet-On GFP-IBD and U87^Tet-On GFP-IBD cell lines have been developed. Cells were seeded at 3×10^5 per Fluorodish in media supplemented with 1 μg/mL doxycycline following pretreatment for 1 h with glycolysis inhibitors before 6 Gy irradiation at 48 h. Phloretin Glut1i—Glucose transporter 1 inhibitor 100 μM (Sigma), HXi—Hexokinase inhibitorII 50 μM (Calbiochem), PKi—Pyruvate kinase inhibitor oxalate 50 μM (Sigma), LDHi—Lactate dehydrogenase inhibitor, oxamate 1 mM (Sigma).

[4] = tested on: U87 human glioma cell line; test: GFP-53BP1 IRIF persistence in U87 Tet-On GFP-IBD cells; format: cell-based; settings: 24 hours after 6 Gy
Procedure: as §1

[5] = chemotherapy agent, no irradiation stated

O=CC[C@@H](O)[C@H](O)[C@H](O)CO [2DG, 2-deoxy-D-glucose]
persistence of GFP-53BP1 foci (IRIF) [1]: induced persistence of GFP-53BP1 foci | SA-βGal induction in tumor ([2]; irradiated tumor treated with 2DG and veliparib): Strongest induction of SA-βGal | SA-βGal positive cells in tumor ([2]; irradiation combined with 2DG): induced numerous cells stained positive for SA-βGal

Nc1nc2ccc(Cl)cc2c2nc(-c3ccco3)nn12 [CGS15943]
Senescence inducing condition 2 (compound concentration combined with IR) ([1]; compound + 5 Gy): 0.05 μM + 5 Gy^

N[C@@H](C(=O)N[C@@H]1C(=O)N2C(C(=O)O)=C(Cl)CS[C@H]12)c1ccccc1 [Cefaclor]
Senescence inducing condition 1 (compound concentration combined with IR) ([1]; compound + 6 Gy): 25 μM + 6 Gy

CC1=C(C(=O)O)N2C(=O)[C@@H](NC(=O)[C@H](N)c3ccccc3)[C@H]2SC1 [Cephalexin]
Senescence inducing condition 2 (compound concentration combined with IR) ([1]; compound + 6 Gy): 10 μM + 6 Gy

N.N.[Cl][Pt][Cl] [Cisplatin]
persistence of GFP-53BP1 foci [1, 5]: induced persistence of GFP-53BP1 foci | senescence and growth [1, 5]: accelerated senescence and growth suppression

CN(C)CCC=C1c2ccccc2COc2ccccc21 [Doxepin]
Senescence inducing condition 2 (compound concentration combined with IR) ([1]; compound + 5 Gy): 2.5 μM + 5 Gy

O=c1[nH]cc(F)c(=O)[nH]1 [Fluorouracil (5-FU), Fluorouracil]
accelerated senescence [1]: accelerates senescence | persistence of GFP-53BP1 foci (IRIF) [1]: enhances IRIF persistence

CN1CCC(=C2c3ccccc3CC(=O)c3sccc32)CC1 [Ketotifen]
Senescence inducing condition 2 (compound concentration combined with IR) ([1]; compound + 5 Gy): 5 μM + 5 Gy

COC(=O)C1=C(C)NC(C)=C(C(=O)OCC(C)C)C1c1ccccc1[N+](=O)[O-] (stereo not shown) [Nisoldipine]
Senescence inducing condition 2 (compound concentration combined with IR) ([1]; compound + 6 Gy): 10 μM + 6 Gy

O=C(O)C[C@H](O)C[C@H](O)/C=C/c1c(C2CC2)nc2ccccc2c1-c1ccc(F)cc1 [Pitavastatin]
Senescence inducing condition 1 (compound concentration combined with IR) ([1]; compound + 6 Gy): 10 μM + 6 Gy

O=c1c(O)c(-c2ccc(O)c(O)c2)oc2cc(O)cc(O)c12 [Quercetin]
Senescence inducing condition 2 (compound concentration combined with IR) ([1]; compound + 5 Gy): 2.5 μM + 5 Gy

COc1ccc(C2CNC(=O)C2)cc1OC1CCCC1 (stereo not shown) [Rolipram]
Senescence inducing condition 1 (compound concentration combined with IR) ([1]; compound + 6 Gy): 10 μM + 6 Gy

O=C(CCCCCCC(=O)Nc1ccccc1)NO [SAHA, suberoylanilide hydroxamic acid]
persistence of GFP-53BP1 foci (IRIF) [1]: enhance radiation induced persistence of GFP-53BP1 foci

CC/C(=C(\c1ccccc1)c1ccc(OCCN(C)C)cc1)c1ccccc1 [Tamoxifen]
accelerated senescence [1]: promoted accelerated senescence | persistence of GFP-53BP1 foci (IRIF) [1]: induced persistence of GFP-53BP1 foci after irradiation

CN(C/C=C/C#CC(C)(C)C)Cc1cccc2ccccc12 [Terbinafine]
Senescence inducing condition 1 (compound concentration combined with IR) ([1]; compound + 5 Gy): 2.5 μM + 5 Gy

O=c1n(CCCN2CCN(c3cccc(Cl)c3)CC2)nc2ccccn12 [Trazodone]
Senescence inducing condition 2 (compound concentration combined with IR) ([1]; compound + 6 Gy): 10 μM + 6 Gy

CCCCCCCCCCCCCCCc1cccc(O)c1C(=O)O [anacardic acid]
persistence of GFP-53BP1 foci (IRIF) [1]: enhance radiation induced persistence of GFP-53BP1 foci

c1cc(-c2cnn3cc(-c4ccc(OCCN5CCCCC5)cc4)cnc23)ccn1 [compound C]
accelerated senescence [1]: promoted accelerated senescence | persistence of GFP-53BP1 foci (IRIF) [1]: induced persistence of GFP-53BP1 foci after irradiation

O=C(O)C(Cl)Cl [dichloroacetic acid (DCA), dichloroacetic acid]
accelerated senescence [1]: promoted accelerated senescence | persistence of GFP-53BP1 foci (IRIF) [1]: induced persistence of GFP-53BP1 foci following irradiation

CN(C)C(=N)N=C(N)N [metformin]
accelerated senescence [1]: promoted accelerated senescence | persistence of GFP-53BP1 foci (IRIF) [1]: induced persistence of GFP-53BP1 foci after irradiation

O=C(CCc1ccc(O)cc1)c1c(O)cc(O)cc1O [phloretin]
IRIF persistence [3]: markedly increased IRIF persistence | accelerated senescence [1]: promoted accelerated senescence | persistence of GFP-53BP1 foci (IRIF) [1]: induced persistence of GFP-53BP1 foci following irradiation | IRIF persistence [4]: markedly increased IRIF persistence

oxalate [PKi]
IRIF persistence [3]: markedly increased IRIF persistence | IRIF persistence [4]: markedly increased IRIF persistence
